Assays:
[1] = target: DCAF15/RBM39 (Homo sapiens (Human), UniProt Q14498+Q66K64); assay: AlphaLISA compound-induced DCAF15-RBM39 ternary complex formation; assay type: binding; conditions: His-tagged DCAF15 complex and biotin-carrying RBM39
Method: Example 7: Quantitative Evaluation of Compound-Induced Ternary Complex Formation Using Amplified Luminescent Proximity Homogeneous Assay
Compound-induced DCAF15-RBM39 ternary complex formation was monitored using AlphaLISA® assays (Perkin Elmer, Waltham, MA). Test compounds were first collected in a 384-well microplate (cat. #781280, Grenier Bio-One, Monroe, NC) as 2 mM stocks in 100% dimethyl sulfoxide (DMSO). These stocks were then serially diluted in DMSO by 3-fold into a new plate (cat. #781280, Grenier Bio-One, Monroe, NC) using a Mosquito HTS dispenser (Mosquito® HTS, SPT Labtech, Boston, MA). 0.2 μL of these diluted stocks were then dispensed into a 384-well Optiplate (cat. #6007290, Perkin Elmer, Waltham, MA) in duplicate wells, to assemble the final assay plate consisting of duplicated dose ranges. Separately, a protein mixture consisting of His-tagged DCAF15 complex and biotin-carrying RBM39, each at 408 nM (2.04×), was prepared in 50 mM HEPES, pH 7.5, 100 mM NaCl, 2 mM MgCl2, 0.1% BSA, 2 mM TCEP, 0.05% Tween-20 (dilution buffer). 9.8 μL of this protein mixture was then mixed with the compounds in the assay plate and incubated for one hour at room temperature. Reaction mixtures with no compounds added were included as negative controls, while a His-tagged and biotinylated GST protein was included to track general assay performance. Nickel Chelate AlphaLISA Acceptor beads (cat. #AL108M, Perkin Elmer, MA) and AlphaScreen Streptavidin Donor beads (cat. #6760002, Perkin Elmer, Waltham, MA) were prepared separately in the dilution buffer as 4× stocks (80 ug/ml). The beads were then added to the assay plate sequentially with incubation at room temperature for 1-2 hours after each addition. Signals were recorded using EnVision 2104 Multilabel Plate Reader (Perkin Elmer, Waltham, MA) and titration curves were generated in GraphPad Prism (7.00, GraphPad, La Jolla, CA).

[2] = target: DCAF15 (Homo sapiens (Human), UniProt Q66K64); assay: HTRF competition assay, binary interaction with DCAF15; assay type: binding; conditions: competition with Alexa Fluor 647 tracer
Method: Example 8: Measurement of Binary Interaction Between Compounds and DCAF15 Using Homogeneous Time Resolved Fluorescence (HTRF)
DCAF15 interactions with test compounds were monitored using HTRF competition assays (Cisbio, Bedford, MA). Test compounds were first collected in a 384-well microplate (cat. #781280, Grenier Bio-One, Monroe, NC) as 10 mM stocks in 100% dimethyl sulfoxide (DMSO). A second stock plate (cat. #781280, Grenier Bio-One, Monroe, NC) was prepared through 3-fold serial dilution in DMSO of the afore-mentioned stocks using a Mosquito HTS dispenser (mosquito@ HTS, SPT Labtech, Boston, MA). 0.2 μL of these diluted stocks were then dispensed into a 384-well Optiplate (cat. #6007290, Perkin Elmer, Waltham, MA) in duplicate wells, to assemble the assay plate. The tracer molecule containing an Alexa Fluor 647 probe was prepared in 25 mM HEPES pH 7.5, 100 mM NaCl, 0.1 mg/ml BSA, 0.005% Tween 20, 0.5 mM TCEP (dilution buffer) to 612 nM (2.04×). Separately, His-tagged DCAF15 complex was prepared at 32 nM (4×) in the dilution buffer, and mAb Anti-6His-Eu cryptate Gold (cat. #61H12KLA, Cisbio, Bedford, MA) at 4× dilution in the detection buffer (cat. #61DB9RDF, Cisbio, Bedford, MA). These two solutions were mixed and incubated for 15 min at room temperature. 9.8 μL of the tracer solution and 10 μL of the DCAF15/mAb Anti-6His-Eu cryptate Gold mixture were added sequentially to each well in the assay plate. Reaction mixtures with no DCAF15 added were included as positive controls. The final mixture was incubated for an hour at room temperature and spun down briefly before data collection at 615 nm and 666 nm using EnVision 2104 Multilabel Plate Reader (Perkin Elmer, Bedford, MA). Binding was estimated based on ratiometric analysis and titration curves were generated in GraphPad Prism (7.00, GraphPad, La Jolla, CA).

[3] = target: RBM39 (Homo sapiens (Human), UniProt Q14498+Q66K64); assay: Western blot assay for degradation of RBM39 in HCT116 cells; assay type: cell-based; conditions: Incubation Time: 4 hours, read-out: RBM39 Degradation: IC50 (uM) [Incubation Time: 4 hours]
Method: Example 9: Western Blot Assay Procedure for Assessing Degradation of RBM39 in HCT116 Cells
HCT116 cells were used with passage numbers ranging from 13 to 25. Cells were seeded in 12-well plated at a density of 1 million cells per well in 1 mL cell culture medium containing McCoy's 5A medium (Cat. #16600082, ThermoFisher, Waltham, MA), 10% Fetal Bovine Serum (Cat. #26140, ThermoFisher, Waltham, MA) and 1% Pen-Strep (Cat. #. 15070063, ThermoFisher, Waltham, MA) and incubated overnight. The next morning, compounds were serially diluted (1:3, 9 points) in the medium separately and were prepared 2× the final assay concentration. Subsequently, 1.0 mL medium containing DMSO or the appropriate concentration of each compound was added to respective wells. The final DMSO concentration in each well was 0.1%. […] Cells were then washed once with 1 mL of ice cold Dulbecco's phosphate-buffered saline (Cat. #28374, ThermoFisher, Waltham, MA) and then lysed with 100 μl of lysis buffer containing 1×RIPA (Cat. #. 89900, ThermoFisher, Waltham, MA) and HALT protease and phosphatase inhibitor (Cat. #78442, ThermoFisher, Waltham, MA) on ice for 10 minutes with intermittent rocking. Lysates were then sonicated in a sonication bath (3 pulses of 10 sec each with 1 min incubation on ice between each pulse). Samples were then centrifuged for 20 min at 14,000 rpm for 20 min. Supernatants were then transferred to fresh microfuge tubes and stored frozen at −80° C. until use. Total protein quantitation in lysate samples was done using the BCA protein quantitation kit following the manufacturer's instructions. […] Band intensity in images was quantified using the Image Studio Lite software (Version 5.2). Signal intensity for RBM-39 specific bands were normalized using the signal intensity for […] band, and percent degradation was assessed by comparing RBM39 signal in compound-treated vs. DMSO-treated samples.

Row | EC50 [1] | IC50 [2] | DC50 [3] | SMILES
1 | ≤ 1000 nM | 1000 to 10000 nM | ≤ 1 µM | O=S1(=O)Cc2ccc(S(=O)(=O)Nc3ccc(Cl)c4c(Cl)c[nH]c34)cc2C1 [Compound 17, N-(3,4-dichloro-1H-indol-7-yl)-1,3-dihydrobenzo[c]thiophene-5-sulfonamide 2,2-dioxide]
2 | ≤ 1000 nM | 1000 to 10000 nM | ≤ 1 µM | O=C1NCc2cc(S(=O)(=O)Nc3ccc(Cl)c4c(Cl)c[nH]c34)ccc2O1 [Compound 42, N-(3,4-dichloro-1H-indol-7-yl)-2-oxo-3,4-dihydro-2H-benzo[e][1,3]oxazine-6-sulfonamide]
3 | ≤ 1000 nM | – | ≤ 1 µM | O=C1CSc2ccc(S(=O)(=O)Nc3ccc(Cl)c4c(Cl)c[nH]c34)cc2N1 [Compound 44, N-(3,4-dichloro-1H-indol-7-yl)-3-oxo-3,4-dihydro-2H-benzo[b][1,4]thiazine-6-sulfonamide]
